Measurements: patent US20100267561A1, “HERBICIDAL PYRIDAZINONE DERIVATIVES” (priority 2007, published 2010)
Like-named read-outs stand apart in the source and are kept apart here.

Legend:
Assay in all cases: Test B pre-/postemergence plant response
Type in all cases: in vivo
[1] = tested on: Italian ryegrass (Lolium multiflorum); settings: for Ryegrass, Italian plant response rating: 8 g ai/ha; for pest or weed control at 16 g/ha / pest or weed control at 31 g/ha / pest or weed control at 62 g/ha: Lolium multiflorum, read-out: Plant response rating, Ryegrass, Italian; for pest or weed control at 16 g/ha: 16 g ai/ha; for pest or weed control at 31 g/ha: 31 g ai/ha; for pest or weed control at 62 g/ha: 62 g ai/ha
Outline: (§1)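 Seeds were sown and sprayed preemergence, while plants at 2 to 18 cm (1- to 4-leaf stage) got postemergence sprays. Compounds were formulated in a non-phytotoxic solvent mixture with surfactant. After 13 to 15 days in a greenhouse, injury was rated visually against untreated controls, 0 (no effect) to 100 (complete control).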

[2] = tested on: goosegrass (Eleusine indica); settings: for Goosegrass plant response rating: 8 g ai/ha; for pest or weed control at 16 g/ha / pest or weed control at 31 g/ha / pest or weed control at 62 g/ha: Eleusine indica, read-out: Plant response rating, Goosegrass; for pest or weed control at 16 g/ha: 16 g ai/ha; for pest or weed control at 31 g/ha: 31 g ai/ha; for pest or weed control at 62 g/ha: 62 g ai/ha
Outline: as §1

[3] = tested on: cocklebur (Xanthium strumarium); settings: for Cocklebur plant response rating: 8 g ai/ha; for pest or weed control at 16 g/ha / pest or weed control at 31 g/ha / pest or weed control at 62 g/ha: Xanthium strumarium, read-out: Plant response rating, Cocklebur; for pest or weed control at 16 g/ha: 16 g ai/ha; for pest or weed control at 31 g/ha: 31 g ai/ha; for pest or weed control at 62 g/ha: 62 g ai/ha
Outline: as §1

[4] = tested on: morningglory (Ipomoea coccinea); settings: for Morningglory plant response rating: 8 g ai/ha; for pest or weed control at 16 g/ha / pest or weed control at 31 g/ha / pest or weed control at 62 g/ha: Ipomoea, read-out: Plant response rating, Morningglory; for pest or weed control at 16 g/ha: 16 g ai/ha; for pest or weed control at 31 g/ha: 31 g ai/ha; for pest or weed control at 62 g/ha: 62 g ai/ha
Outline: as §1

[5] = tested on: bermudagrass (Cynodon dactylon); settings: for Bermudagrass plant response rating: 8 g ai/ha; for pest or weed control at 16 g/ha / pest or weed control at 31 g/ha / pest or weed control at 62 g/ha: Cynodon dactylon, read-out: Plant response rating, Bermudagrass; for pest or weed control at 16 g/ha: 16 g ai/ha; for pest or weed control at 31 g/ha: 31 g ai/ha; for pest or weed control at 62 g/ha: 62 g ai/ha
Outline: as §1

[6] = tested on: common (oilseed) sunflower (Helianthus annuus); settings: Preemergence
Outline: as §1

[7] = tested on: surinam grass (Brachiaria decumbens); settings: for Surinam Grass plant response rating: 8 g ai/ha; for pest or weed control at 16 g/ha: 16 g ai/ha; for pest or weed control at 62 g/ha: 62 g ai/ha
Outline: as §1

[8] = post-emergence, Postemergence, scale 0 to 100
[9] = post-emergence, Postemergence, scale 0 to 100, 0 no effect, 100 complete control
[10] = pre-emergence, Preemergence, scale 0 to 100 (0 no effect, 100 complete control)
[11] = pre-emergence, Preemergence, 0 to 100 scale, 0 no effect, 100 complete control
[12] = pre-emergence, Preemergence, scale 0 to 100

Question: CCc1c(C)c(-c2ccc(Cl)cc2)nn1-c1c(O)cnn(C)c1=O [Compound 26, 4-[3-(4-chlorophenyl)-5-ethyl-4-methyl-1H-pyrazol-1-yl]-5-hydroxy-2-methyl-3(2H)-pyridazinone] was tested. Which “Ryegrass, Italian plant response rating” value ([1]; postemergence, 0-100 scale) did it give?
Answer: 70

Question: And the pest or weed control at 16 g/ha [1, 8]?
Answer: 85%

Question: What about the pest or weed control at 31 g/ha [1, 9] of the same compound?
Answer: 85%

Question: And the pest or weed control at 62 g/ha [1, 9]?
Answer: 100%

Question: And the pest or weed control at 16 g/ha [1, 10]?
Answer: 90%

Question: What about the pest or weed control at 31 g/ha [1, 11] of the same compound?
Answer: 100%

Question: And the pest or weed control at 62 g/ha [1, 12]?
Answer: 100%

Question: And the “Ryegrass, Italian plant response rating” value ([1]; Preemergence, scale 0 to 100)?
Answer: 50

Question: And the “Goosegrass plant response rating” value ([2]; postemergence, 0-100 scale)?
Answer: 0

Question: And the pest or weed control at 16 g/ha [2, 8]?
Answer: 0%

Question: What about the pest or weed control at 31 g/ha [2, 9] of the same compound?
Answer: 0%

Question: And the pest or weed control at 62 g/ha [2, 9]?
Answer: 20%

Question: What about the pest or weed control at 16 g/ha [2, 10] of the same compound?
Answer: 50%

Question: What about the pest or weed control at 31 g/ha [2, 11] of the same compound?
Answer: 70%

Question: And the pest or weed control at 62 g/ha [2, 12]?
Answer: 95%

Question: What about the “Goosegrass plant response rating” value ([2]; Preemergence, scale 0 to 100) of the same compound?
Answer: 50

Question: What about the “Cocklebur plant response rating” value ([3]; postemergence, 0-100 scale) of the same compound?
Answer: 0

Question: What about the “Cocklebur plant response rating” value ([3]; Preemergence, scale 0 to 100) of the same compound?
Answer: 0

Question: What about the pest or weed control at 16 g/ha [3, 8] of the same compound?
Answer: 0%

Question: What about the pest or weed control at 31 g/ha [3, 9] of the same compound?
Answer: 0%

Question: And the pest or weed control at 62 g/ha [3, 9]?
Answer: 0%

Question: And the pest or weed control at 16 g/ha [3, 10]?
Answer: 0%

Question: And the pest or weed control at 31 g/ha [3, 11]?
Answer: 0%

Question: And the pest or weed control at 62 g/ha [3, 12]?
Answer: 10%

Question: What about the “Morningglory plant response rating” value ([4]; postemergence, 0-100 scale) of the same compound?
Answer: 0

Question: And the pest or weed control at 16 g/ha [4, 8]?
Answer: 0%

Question: What about the pest or weed control at 31 g/ha [4, 9] of the same compound?
Answer: 0%

Question: What about the pest or weed control at 62 g/ha [4, 9] of the same compound?
Answer: 0%

Question: And the pest or weed control at 16 g/ha [4, 10]?
Answer: 0%

Question: And the pest or weed control at 31 g/ha [4, 11]?
Answer: 0%

Question: What about the pest or weed control at 62 g/ha [4, 12] of the same compound?
Answer: 0%

Question: What about the “Morningglory plant response rating” value ([4]; Preemergence, scale 0 to 100) of the same compound?
Answer: 0

Question: What about the “Bermudagrass plant response rating” value ([5]; postemergence, 0-100 scale) of the same compound?
Answer: 0

Question: What about the pest or weed control at 16 g/ha [5, 8] of the same compound?
Answer: 0%

Question: What about the pest or weed control at 31 g/ha [5, 9] of the same compound?
Answer: 0%

Question: And the pest or weed control at 62 g/ha [5, 9]?
Answer: 0%

Question: And the pest or weed control at 16 g/ha [5, 10]?
Answer: 0%

Question: And the pest or weed control at 31 g/ha [5, 11]?
Answer: 0%

Question: And the pest or weed control at 62 g/ha [5, 12]?
Answer: 80%

Question: And the “Bermudagrass plant response rating” value ([5]; Preemergence, scale 0 to 100 (0 no effect, 100 complete control))?
Answer: 0

Question: And the pest or weed control at 16 g/ha ([6]; Helianthus annuus, pre-emergence, 16 g ai/ha, scale 0 to 100 (0 no effect, 100 complete control), read-out: Plant response rating, Sunflower)?
Answer: 0%

Question: What about the pest or weed control at 31 g/ha ([6]; Helianthus annuus, pre-emergence, 31 g ai/ha, 0 to 100 scale, 0 no effect, 100 complete control, read-out: Plant response rating, Sunflower) of the same compound?
Answer: 0%

Question: And the pest or weed control at 62 g/ha ([6]; Helianthus annuus, pre-emergence, 62 g ai/ha, scale 0 to 100, read-out: Plant response rating, Sunflower)?
Answer: 0%

Question: What about the “Sunflower plant response rating” value ([6]; 8 g ai/ha, scale 0 to 100) of the same compound?
Answer: 0

Question: What about the “Surinam Grass plant response rating” value ([7]; postemergence, 0-100 scale) of the same compound?
Answer: 85

Question: And the “Surinam Grass plant response rating” value ([7]; Preemergence, scale 0 to 100)?
Answer: 75

Question: And the pest or weed control at 16 g/ha ([7]; Urochloa decumbens, post-emergence, Postemergence, scale 0 to 100, read-out: Plant response rating, Surinam Grass)?
Answer: 85%

Question: And the pest or weed control at 62 g/ha ([7]; Urochloa decumbens, post-emergence, Postemergence, scale 0 to 100, 0 no effect, 100 complete control, read-out: Plant response rating, Surinam Grass)?
Answer: 100%

Question: And the pest or weed control at 16 g/ha ([7]; Urochloa decumbens, pre-emergence, Preemergence, scale 0 to 100 (0 no effect, 100 complete control), read-out: Plant response rating, Surinam Grass)?
Answer: 85%

Question: What about the pest or weed control at 31 g/ha ([7]; Urochloa decumbens, pre-emergence, Preemergence, 31 g ai/ha, 0 to 100 scale, 0 no effect, 100 complete control, read-out: Plant response rating, Surinam Grass) of the same compound?
Answer: 100%

Question: And the pest or weed control at 62 g/ha ([7]; Urochloa decumbens, pre-emergence, Preemergence, scale 0 to 100, read-out: Plant response rating, Surinam Grass)?
Answer: 100%
